{"source": "patent US9375519B2", "about": "“Bioerodable poly(etheresteramides) and medical article uses” (SurModics, Inc., priority 2012, dated 2016)", "experiment": "Analysis of monomer degradation in deuterated water by NMR (free phenylalanine)", "assay_type": "physicochemical", "conditions": "deuterated water at pH 4, 7 or 11, room temperature", "method": "Monomers of formula II were evaluated for degradation in water at basic, neutral, and acidic pH conditions.\nNMR indicated an increasing presence of free phenylalanine, a degradation byproduct, in solution over time (FIG. 1). […] This is consistent with hydrolysis of the ester bond in the Phe-TEG monomer.\nMonomers were placed in deuterated water (adjusted to pH 4, 7, or 11 with DCl or NaOD) in an NMR tube and incubated at room temperature. NMR was used to detect the presence of free phenylalanine, a degradation byproduct, in the aqueous phase (see FIG. 1).", "note": "Entries after “also recorded” stand apart in the source; their conditions may differ. Structures can show the parent of a compound that is named as a salt."}
{"smiles": "NC(Cc1ccccc1)C(=O)OCCOCCOCCOCCOC(=O)C(N)Cc1ccccc1", "note": "(stereo not shown) [Phe-TEG, di-p-toluenesulfonic salt of bis-(phenylalanine)-tetraethylene glycol diester]", "values": [{"measurement": "degradation of monomer in water (free phenylalanine in solution over time by NMR)", "result": "showed evidence of degradation; also recorded: larger under basic conditions than neutral or acidic"}]}
